Experimental data taken from US20090054392A1, “NAPHTHYLPYRIMIDINE, NAPHTHYLPYRAZINE AND NAPHTHYLPYRIDAZINE ANALOGS AND THEIR USE AS AGONISTS OF THE WNT-BETA-CATENIN CELLULAR MESSAGING SYSTEM” (Wyeth, priority 2007, published 2009).

Test system: Dkk1-LRP5-TCF-Luciferase
Test: Functional Dkk1-LRP5-TCF-Luciferase Assay in U2OS Cells
Conditions: for fold induction at 2 µM / fold induction at 20 µM / EC50: Homo sapiens, U2OS; for fold induction at 2 µM: read-out: B = TCF ACTIVITY/DMSO CONTROL Fold induction @ 2.0 uM, 2.0 uM compound; for fold induction at 20 µM: read-out: C = TCF ACTIVITY/DMSO CONTROL Fold induction @ 20.0 uM, 20.0 uM compound; for A = MAX FOLD Induction/DMSO CONTROL: maximum fold induction over DMSO control

| A = MAX FOLD Induction/DMSO CONTROL [fold] | EC50 [µM] | Compound | fold induction at 2 µM | fold induction at 20 µM |
| --- | --- | --- | --- | --- |
| – | – | O=C(c1ccccc1)N1CCC(CNc2nccc(-c3ccc4ccccc4c3)n2)CC1 [N-[(1-benzoylpiperidin-4-yl)methyl]-4-(2-naphthyl)pyrimidin-2-amine] | 1.44 | 0.627 |
| – | – | COC(=O)[C@H](NC(=O)OC(C)(C)C)C1CCN(c2nccc(-c3ccc4ccccc4c3)n2)CC1 [methyl (2R)-[(tert-butoxycarbonyl)amino]{1-[4-(2-naphthyl)pyrimidin-2-yl]piperidin-4-yl}acetate] | – | 0.77 |
| – | – | CNc1nccc(-c2ccc3ccccc3c2)n1 [N-methyl-4-(2-naphthyl)pyrimidin-2-amine] | 1.34 | – |
| – | – | c1ccc2cc(-c3ccnc(N4CC[C@H](N5CCCCC5)C4)n3)ccc2c1 [4-(2-naphthyl)-2-[(3S)-3-piperidin-1-ylpyrrolidin-1-yl]pyrimidine] | 1.65 | – |
| – | – | CCN(C)CCN(C)[C@@H]1CCN(c2nccc(-c3ccc4ccccc4c3)n2)C1 [N-ethyl-N,N′-dimethyl-N′-{(3R)-1-[4-(2-naphthyl)pyrimidin-2-yl]pyrrolidin-3-yl}ethane-1,2-diamine] | 1.8 | – |
| – | – | O=C(N[C@@H]1CCN(c2nccc(-c3ccc4ccccc4c3)n2)C1)c1ccc(Cl)cc1 [4-chloro-N-{(3R)-1-[4-(2-naphthyl)pyrimidin-2-yl]pyrrolidin-3-yl}benzamide] | 1.68 | – |
| 1.260 | – | CCN(CC)c1nccc(-c2ccc3ccccc3c2)n1 [N,N-diethyl-4-(2-naphthyl)pyrimidin-2-amine] | 1.75 | 1.68 |
| – | – | CS(=O)(=O)NCC1CCN(c2nccc(-c3ccc4ccccc4c3)n2)CC1 [N-({1-[4-(2-naphthyl)pyrimidin-2-yl]piperidin-4-yl}methyl)methanesulfonamide] | 1.12 | 0.48 |
| – | – | CC(C)NC(=O)N[C@H]1CCN(c2nccc(-c3ccc4ccccc4c3)n2)C1 [N-isopropyl-N′-{(3S)-1-[4-(2-naphthyl)pyrimidin-2-yl]pyrrolidin-3-yl}urea] | 1.12 | 0.79 |
| – | – | COc1ccccc1-c1ccc2cc(-c3ccnc(N4CCC(CN)CC4)n3)ccc2c1 [1-(1-{4-[6-(2-methoxyphenyl)-2-naphthyl]pyrimidin-2-yl}piperidin-4-yl)methanamine] | 1.88 | – |
| – | – | COc1ccc(-c2ccc3cc(-c4ccnc(N5CCC(CN)CC5)n4)ccc3c2)cc1 [1-(1-{4-[6-(4-methoxyphenyl)-2-naphthyl]pyrimidin-2-yl}piperidin-4-yl)methanamine] | – | 1.9 |
| 5.295 | 8.71 | NC(=O)N1CC[C@@H](Nc2nccc(-c3ccc4ccccc4c3)n2)C1 [(3R)-3-{[4-(2-naphthyl)pyrimidin-2-yl]amino}pyrrolidine-1-carboxamide] | – | 2.42 |
| – | – | CC(C)(C)N[C@@H]1CCN(c2nccc(-c3ccc4ccccc4c3)n2)C1 [(3R)—N-(tert-butyl)-1-[4-(2-naphthyl)pyrimidin-2-yl]pyrrolidin-3-amine] | 1.56 | 0.29 |
| 2.760 | – | CCN(CCO)CC1CCN(c2nccc(-c3ccc4ccccc4c3)n2)CC1 [2-[ethyl({1-[4-(2-naphthyl)pyrimidin-2-yl]piperidin-4-yl}methyl)amino]ethanol] | 4.93 | 0.01 |
| 1.960 | – | c1ccc2cc(-c3ccnc(N4CC[C@@H](n5ccnc5)C4)n3)ccc2c1 [2-[(3R)-3-(1H-imidazol-1-yl)pyrrolidin-1-yl]-4-(2-naphthyl)pyrimidine] | 1.31 | 3.9 |
| 4.610 | – | CC(C)(C)NC[C@@H]1CCN(c2nccc(-c3ccc4ccccc4c3)n2)C1 [2-methyl-N-({(3S)-1-[4-(2-naphthyl)pyrimidin-2-yl]pyrrolidin-3-yl}methyl)propan-2-amine] | 2.44 | 0.06 |
| 4.630 | 11.7 | c1ccc2cc(-c3ccnc(N4CCC(Cn5ccnc5)CC4)n3)ccc2c1 [2-[4-(1H-imidazol-1-ylmethyl)piperidin-1-yl]-4-(2-naphthyl)pyrimidine] | 1.13 | 3.34 |
| 3.950 | 1.19 | NC[C@@H]1CCCN(c2nccc(-c3ccc4ccccc4c3)n2)CC1 [1-{(4R)-1-[4-(2-naphthyl)pyrimidin-2-yl]azepan-4-yl}methanamine] | 2.66 | – |
| 1.510 | 5.61 | CS(=O)(=O)N1CCCN(c2nccc(-c3ccc4ccccc4c3)n2)CC1 [1-(methylsulfonyl)-4-[4-(2-naphthyl)pyrimidin-2-yl]-1,4-diazepane] | – | 1.59 |
| – | – | O=C([C@H]1CCCN1c1nccc(-c2ccc3ccccc3c2)n1)N1CCCC1 [4-(2-naphthyl)-2-[(2R)-2-(pyrrolidin-1-ylcarbonyl)pyrrolidin-1-yl]pyrimidine] | 1.05 | 1.1 |
| 2.740 | – | CCNC(=O)N[C@H]1CC[C@H](Nc2nccc(-c3ccc4ccccc4c3)n2)CC1 [N-ethyl-N′-(trans-4-{[4-(2-naphthyl)pyrimidin-2-yl]amino}cyclohexyl)urea] | 2.84 | 2.35 |
| – | – | CC(C)(C)OC(=O)NC1CCN(c2nccc(-c3ccc4ccccc4c3)n2)CC1 [tert-butyl {1-[4-(2-naphthyl)pyrimidin-2-yl]piperidin-4-yl}carbamate] | 0.93 | 1.91 |
| 1.580 | 0.97 | NC1CCN(c2nccc(-c3ccc4ccccc4c3)n2)CC1 [1-[4-(2-naphthyl)pyrimidin-2-yl]piperidin-4-amine] | 2.11 | – |
| – | 2.4 | O[C@H]1CCCN([C@@H]2CCN(c3nccc(-c4ccc5ccccc5c4)n3)C2)C1 [(3S)-1-{(3R)-1-[4-(2-naphthyl)pyrimidin-2-yl]pyrrolidin-3-yl}piperidin-3-ol] | – | – |
| – | – | c1cnc(NCC2CCN(c3nccc(-c4ccc5ccccc5c4)n3)CC2)nc1 [N-({1-[4-(2-naphthyl)pyrimidin-2-yl]piperidin-4-yl}methyl)pyrimidin-2-amine] | 1.28 | 1.48 |
| – | – | O=C(NC1CCCCC1)N1CCC(Nc2nccc(-c3ccc4ccccc4c3)n2)CC1 [N-cyclohexyl-4-{[4-(2-naphthyl)pyrimidin-2-yl]amino}piperidine-1-carboxamide] | – | 1.45 |
| 3.800 | 3.93 | c1ccc2cc(-c3ccnc(N4CC[C@H](n5ccnc5)C4)n3)ccc2c1 [2-[(3S)-3-(1H-imidazol-1-yl)pyrrolidin-1-yl]-4-(2-naphthyl)pyrimidine] | 1.29 | 3.92 |
| – | – | O=C1CCCCN1CC1CCN(c2nccc(-c3ccc4ccccc4c3)n2)CC1 [1-({1-[4-(2-naphthyl)pyrimidin-2-yl]piperidin-4-yl}methyl)piperidin-2-one] | 1.55 | 0.73 |
| – | – | CN(c1nccc(-c2ccc3ccccc3c2)n1)C1CCN(C(=O)c2ccccc2)CC1 [N-(1-benzoylpiperidin-4-yl)-N-methyl-4-(2-naphthyl)pyrimidin-2-amine] | 1.85 | – |
